What follows are compounds tested against T1, IBV PLpro (Avian infectious bronchitis virus (strain M41), UniProt P0C6Y3) (assay: UB-AMC deubiquitination, fluorescence kinetics). Conditions: read-out: relative enzymatic activity at 100 μM.
Format: biochemical

T1 sequence (P0C6Y3 1177-1499): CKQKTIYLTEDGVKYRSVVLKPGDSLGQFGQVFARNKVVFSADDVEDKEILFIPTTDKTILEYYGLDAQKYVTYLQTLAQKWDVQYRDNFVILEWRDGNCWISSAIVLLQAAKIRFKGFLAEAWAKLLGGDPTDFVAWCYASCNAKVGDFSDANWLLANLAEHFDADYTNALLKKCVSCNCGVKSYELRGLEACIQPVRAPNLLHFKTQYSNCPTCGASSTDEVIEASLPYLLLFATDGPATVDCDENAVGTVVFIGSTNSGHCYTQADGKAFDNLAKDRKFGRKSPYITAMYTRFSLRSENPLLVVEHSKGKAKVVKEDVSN

| Structure (SMILES) | activity at 100 µM |
| --- | --- |
| O=c1cc(-c2ccccc2)oc2cc(O)c(O)c(O)c12 [baicalein] | < 20% |
| O=c1cc(-c2ccccc2)oc2cc(O)cc(O)c12 [chrysin] | < 20% |
| COc1ccc(-c2oc3c(CC=C(C)C)c(O[C@@H]4O[C@H](CO)[C@@H](O)[C@H](O)[C@H]4O)cc(O)c3c(=O)c2O[C@@H]2O[C@@H](C)[C@H](O)[C@@H](O)[C@H]2O)cc1 [icariin] | < 20% |
| O=c1c2cc(O)c(O)cc2oc2cc(O)c([C@@H]3O[C@H](CO)[C@@H](O)[C@H](O)[C@H]3O)c(O)c12 [mangiferin] | < 20% |
| C[C@@H]1O[C@@H](O[C@H]2[C@H](Oc3cc(O)c4c(c3)O[C@H](c3ccc(O)cc3)CC4=O)O[C@H](CO)[C@@H](O)[C@@H]2O)[C@H](O)[C@H](O)[C@H]1O [naringin] | < 20% |

Each compound was assayed against T1, IBV PLpro (assay: UB-AMC deubiquitination, fluorescence kinetics). Conditions: not given.
Format: biochemical

| Structure (SMILES) | IC50 |
| --- | --- |
| O=c1c(O)c(-c2cc(O)c(O)c(O)c2)oc2cc(O)cc(O)c12 [myricetin] | 10.6 µM |
